# Laboratory results as given in ChEMBL document CHEMBL4765400, “Open and rearranged norbornane derived polycyclic cage molecules as potential neuroprotective agents through attenuation of MPP- and calcium overload-induced excitotoxicity in neuroblastoma SH-SY5Y cells” (Eur J Med Chem, 2020).
# Active and inactive are the calls of the source. The calls are words filed in the database; no cut-off is given here.
# Legend:
# SH-SY5Y [1] = assay: Cytotoxicity against human SH-SY5Y cells assessed as reduction in cell viability at 10 to 100 uM incubated for 24 hrs by MTT assay; assay type: cell-based; conditions: dose 10-100 µM
# [2] = Cytotoxicity against human SH-SY5Y cells assessed as cell viability at 10 uM incubated for 24 hrs by MTT assay relative to control; assay type: cell-based; conditions: read-out: Activity
# [3] = Cytotoxicity against human SH-SY5Y cells assessed as cell viability at 100 uM incubated for 24 hrs by MTT assay relative to control; assay type: cell-based; conditions: read-out: Activity
# SH-SY5Y [4] = assay: Neuroprotective activity against MPP+-induced neurotoxicity in human SH-SY5Y cells assessed as cell viability at 10 uM pretreated for 2 hrs followed by MPP+ challenge and measured after 24 hrs by MTT assay relative to control; assay type: functional; conditions: time 26 hrs, read-out: Activity
# SH-SY5Y [5] = assay: Antagonist activity at NMDA receptor in human SH-SY5Y cells assessed as inhibition of calcium influx at 10 uM by Fura-2AM dye based fluorescence analysis relative to control; assay type: cell-based
# SH-SY5Y [6] = assay: Blockade of VGCC in human SH-SY5Y cells assessed as inhibition of membrane depolarisation-induced calcium influx at 10 uM by Fura-2AM dye based fluorescence analysis relative to control; assay type: cell-based
# [7] = Displacement of [3H]MK801 from NMDA receptor in Sprague-Dawley rat cerebral cortical membrane incubated for 60 mins by liquid scintillation counting analysis; assay type: cell membranes, Cerebral cortex
# [8] = Displacement of [3H]MK801 from NMDA receptor in human brain by radioligand binding assay; assay type: tissue-based
# [9] = Displacement of [3H]MK801 from NMDA receptor (unknown origin) by radioligand binding assay; parameters: species or system Homo sapiens
# [10] = Antagonist activity at NMDA receptor (unknown origin); parameters: species or system Homo sapiens
SMILES,Activity (SH-SY5Y [1]),"viability at 24 h, 10 µM [2] [%]",viability at 10 µM (SH-SY5Y [4]) [%],inhibition (SH-SY5Y [5]; filed as antagonist) [%],inhibition (SH-SY5Y [6]),also measured
O[C@@H]1C[C@H]2CC[C@@H]1NC2,Toxic,96.3,28.3,43.5,inactive,"viability at 24 h, 100 µM [3]: 59%"
O=C1C=C[C@H](NN2CCCCC2)[C@@H]2[C@H]1[C@H]1C=C[C@@H]2C1,Non-Toxic,93.7,33.9,65.3,8.4%,
C1=C[C@H]2CC[C@@H]1[C@H]1CNC[C@H]12,Non-Toxic,108,27.5,55.5,5.79%,
C[C@@]12N[C@@H](Cc3ccccc31)c1ccccc12,,,,47.5,inactive,Ki [7]: 0.0372 µM
CC12CC3CC(C)(C1)CC(N)(C3)C2 [MEMANTINE],,,,,,Ki [8]: 0.54 µM
CN[C@@]1(c2ccccc2Cl)CCCCC1=O,,,,,,Ki [9]: 0.659 µM
c1ccc(C2(N3CCCCC3)CCCCC2)cc1 [PHENCYCLIDINE],,,,,,Ki [9]: 0.059 µM
C1C2OC2[C@H]2[C@@H]1[C@H]1C[C@@H]2C2OC21 (stereo not given in full),Toxic,94.4,27.9,53.3,8.49%,
O=C1CC[C@H]2C[C@@H]1CCC2=O,Non-Toxic,125,26.1,73,inactive,
O=C1C=C[C@H](NCc2ccccc2)[C@@H]2[C@H]1[C@H]1C=C[C@@H]2C1,Toxic,108,33.7,,21.3%,inhibition (SH-SY5Y [5]): 26.5%
O=C1C2C3C=CC(C3)C2C(=O)C2C3C=CC(C3)C12 (stereo not given),Non-Toxic,95.9,41.4,62.3,50.3%,
NC12CC3CC(CC(C3)C1)C2 [AMANTADINE],,,,,,Ki [10]: 10 µM
"O=C1CC[C@H](O)C2C3C=C[C@@H](C3)C12 (single isomer, unassigned)",Non-Toxic,96.3,35,69.7,32.8%,
O=C1C=CC(=O)[C@H]2[C@@H]1[C@H]1C=C[C@H]2C1,Toxic,97.7,32.8,43.8,15%,
O=C1CCC(=O)[C@H]2[C@@H]1[C@H]1C=C[C@H]2C1,Toxic,96.6,40.6,51,25.4%,
COCCOC(=O)C1=C(C)NC(C)=C(C(=O)OC(C)C)C1c1cccc([N+](=O)[O-])c1 (stereo not given),,,,,34.1%,inhibition (SH-SY5Y [5]): inactive
